# Measured values: patent US6077680A (The University of Florida, dated 2000)
# How the values were obtained:
# [1] = system: rat brain membrane K channels (primarily Kv1.2); type: binding
# [2] = molecular target: Kv1.3 potassium channels in Jurkat T lymphocytes (Homo sapiens, UniProt P22001); type: cell-based
# Kv1.3(D386→K) = type: cell-based
# [3] = molecular target: Kv1.3 channels in Jurkat T lymphocytes (Homo sapiens, UniProt P22001); type: binding
# Kv1.3 [4] = molecular target: T1, Kv1.3 (Mus musculus, UniProt P16390); test: cell-based; type: cell-based
# Kv1.2 = Kv1.2 (Rattus norvegicus, UniProt P63142); type: cell-based
# Kv1.3 [5] = molecular target: T1, Kv1.3; type: cell-based
# Kv1.5 = Kv1.5 (Homo sapiens, UniProt P22460); type: cell-based
# Kv3.1 = Kv3.1 (Mus musculus, UniProt P15388); type: cell-based
# IKCa (hKCa4) = IKCa (hKCa4) (Homo sapiens, UniProt O15554); type: cell-based
# [6] = system: Kv1.1, Kv1.2, Kv1.5, Kv3.1, hKCa4 relative to Kv1.3; type: cell-based
# [7] = system: pepsin A, pancreatic elastase, subtilisin, trypsin-chymotrypsin, thermolysin
# Kv1.3 potassium channels in Jurkat T lymphocytes, sequence (P22001 whole entry): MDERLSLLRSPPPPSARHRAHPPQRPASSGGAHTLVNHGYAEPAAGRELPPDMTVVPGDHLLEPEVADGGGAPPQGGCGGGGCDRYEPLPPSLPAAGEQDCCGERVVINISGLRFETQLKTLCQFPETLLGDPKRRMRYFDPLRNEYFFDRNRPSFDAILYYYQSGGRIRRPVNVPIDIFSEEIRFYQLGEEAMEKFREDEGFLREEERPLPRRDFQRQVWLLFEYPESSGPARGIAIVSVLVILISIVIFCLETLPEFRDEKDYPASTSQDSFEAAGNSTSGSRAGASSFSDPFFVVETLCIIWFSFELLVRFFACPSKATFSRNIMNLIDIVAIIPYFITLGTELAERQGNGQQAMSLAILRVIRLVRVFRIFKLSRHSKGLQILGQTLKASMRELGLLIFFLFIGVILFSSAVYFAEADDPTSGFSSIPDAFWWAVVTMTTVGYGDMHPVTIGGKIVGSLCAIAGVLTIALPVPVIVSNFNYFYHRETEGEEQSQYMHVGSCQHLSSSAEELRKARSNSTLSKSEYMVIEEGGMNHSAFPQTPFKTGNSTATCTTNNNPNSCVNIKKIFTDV
# T1 sequence (P16390 whole entry): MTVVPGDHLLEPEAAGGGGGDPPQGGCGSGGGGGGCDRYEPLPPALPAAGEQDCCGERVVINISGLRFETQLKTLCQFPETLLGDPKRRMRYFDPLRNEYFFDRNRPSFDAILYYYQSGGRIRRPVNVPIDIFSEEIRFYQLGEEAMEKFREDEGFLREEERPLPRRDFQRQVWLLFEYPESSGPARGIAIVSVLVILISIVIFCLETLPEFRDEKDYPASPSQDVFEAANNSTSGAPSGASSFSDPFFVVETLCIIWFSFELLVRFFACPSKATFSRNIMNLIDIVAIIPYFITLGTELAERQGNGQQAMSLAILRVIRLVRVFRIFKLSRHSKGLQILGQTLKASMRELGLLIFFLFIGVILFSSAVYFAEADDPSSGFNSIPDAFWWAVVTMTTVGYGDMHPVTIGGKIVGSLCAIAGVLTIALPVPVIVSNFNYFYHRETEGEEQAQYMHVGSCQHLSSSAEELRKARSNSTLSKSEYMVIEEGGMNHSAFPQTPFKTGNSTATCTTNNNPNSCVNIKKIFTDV
# Kv1.3 channels in Jurkat T lymphocytes, sequence (P22001 whole entry): as the sequence (P22001 whole entry) above
# Kv3.1, sequence (P15388 whole entry): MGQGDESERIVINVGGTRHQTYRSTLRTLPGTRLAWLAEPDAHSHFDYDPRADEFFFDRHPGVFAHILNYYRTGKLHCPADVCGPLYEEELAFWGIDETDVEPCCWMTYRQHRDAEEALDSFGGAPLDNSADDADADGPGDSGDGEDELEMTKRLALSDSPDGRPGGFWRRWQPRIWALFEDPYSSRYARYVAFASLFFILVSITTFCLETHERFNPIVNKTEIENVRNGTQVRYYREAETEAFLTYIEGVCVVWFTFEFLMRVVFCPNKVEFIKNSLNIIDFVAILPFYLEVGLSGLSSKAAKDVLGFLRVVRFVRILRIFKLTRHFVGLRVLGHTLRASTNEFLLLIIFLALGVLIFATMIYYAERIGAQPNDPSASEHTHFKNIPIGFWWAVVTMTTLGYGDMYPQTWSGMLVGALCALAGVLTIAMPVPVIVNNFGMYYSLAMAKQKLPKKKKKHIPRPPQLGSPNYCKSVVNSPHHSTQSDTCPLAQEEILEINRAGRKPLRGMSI
# Kv1.5, sequence (P22460 whole entry): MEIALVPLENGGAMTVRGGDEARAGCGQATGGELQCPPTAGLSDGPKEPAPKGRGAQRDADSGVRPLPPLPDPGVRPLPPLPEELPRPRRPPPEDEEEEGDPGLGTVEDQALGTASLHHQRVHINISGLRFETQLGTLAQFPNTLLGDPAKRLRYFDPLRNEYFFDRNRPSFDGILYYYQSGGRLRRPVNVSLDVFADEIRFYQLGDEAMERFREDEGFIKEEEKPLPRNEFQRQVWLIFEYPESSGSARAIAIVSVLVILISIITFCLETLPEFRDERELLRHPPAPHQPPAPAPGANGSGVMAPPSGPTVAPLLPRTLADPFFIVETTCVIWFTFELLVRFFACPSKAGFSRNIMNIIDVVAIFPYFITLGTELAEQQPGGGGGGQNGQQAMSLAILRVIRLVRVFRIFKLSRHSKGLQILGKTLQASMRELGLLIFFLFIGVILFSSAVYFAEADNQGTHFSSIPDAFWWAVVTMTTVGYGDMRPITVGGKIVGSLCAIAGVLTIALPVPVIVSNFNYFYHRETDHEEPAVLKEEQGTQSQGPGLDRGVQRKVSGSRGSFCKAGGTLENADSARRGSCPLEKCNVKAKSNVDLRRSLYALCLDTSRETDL
# IKCa (hKCa4), sequence (O15554 whole entry): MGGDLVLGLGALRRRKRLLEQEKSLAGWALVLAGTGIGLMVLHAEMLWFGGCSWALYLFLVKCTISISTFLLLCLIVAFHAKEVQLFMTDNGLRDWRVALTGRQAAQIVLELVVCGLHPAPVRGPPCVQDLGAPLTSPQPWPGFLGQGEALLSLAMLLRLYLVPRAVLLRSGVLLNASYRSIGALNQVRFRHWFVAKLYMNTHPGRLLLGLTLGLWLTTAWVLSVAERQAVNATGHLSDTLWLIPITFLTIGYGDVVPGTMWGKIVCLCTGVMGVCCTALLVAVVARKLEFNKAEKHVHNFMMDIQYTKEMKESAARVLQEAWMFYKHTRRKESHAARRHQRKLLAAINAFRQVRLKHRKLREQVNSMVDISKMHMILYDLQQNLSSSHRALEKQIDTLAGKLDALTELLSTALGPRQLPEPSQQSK
# Kv1.2, sequence (P63142 whole entry): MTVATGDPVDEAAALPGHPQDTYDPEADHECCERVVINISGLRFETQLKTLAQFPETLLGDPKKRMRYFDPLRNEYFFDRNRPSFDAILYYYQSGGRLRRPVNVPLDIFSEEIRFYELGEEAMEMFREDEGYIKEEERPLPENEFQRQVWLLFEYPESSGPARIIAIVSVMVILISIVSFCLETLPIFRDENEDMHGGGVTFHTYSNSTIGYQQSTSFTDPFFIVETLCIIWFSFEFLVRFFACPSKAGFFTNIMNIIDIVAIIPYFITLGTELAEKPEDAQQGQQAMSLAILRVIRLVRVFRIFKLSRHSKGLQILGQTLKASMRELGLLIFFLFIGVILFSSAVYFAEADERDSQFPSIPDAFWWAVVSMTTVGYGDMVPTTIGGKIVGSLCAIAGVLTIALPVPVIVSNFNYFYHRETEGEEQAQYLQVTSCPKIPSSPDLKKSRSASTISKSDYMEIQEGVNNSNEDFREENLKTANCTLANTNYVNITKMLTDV
SMILES,Equipotent Molar Ration (Analog IC50 /ShK IC50) Rat brain [1],IC50 Ratio [1],ΔF [1],Equipotent Molar Ration (Analog IC50 /ShK IC50) Lymphocyte [2],reduction of affinity (IC50) for Kv1.3 relative to ShK toxin [2],"ΔΔG (coupling energy), mutant cycle (Kv1.3(D386→K)) [kcal/mol]",IC50 ([1]; read-out: IC50 Rat Brain 125I-CTX) [nM],"Hill coefficient, [125I]-ChTX binding [3]",washout from the receptor (Kv1.3 [4]),Kv1.2 less sensitive than Kv1.3 (Kv1.2) [fold],"Hill coefficient, Kv1.3 block (Kv1.3 [5])","sensitivity of Kv1.5, in words (Kv1.5)","sensitivity of Kv3.1, in words (Kv3.1)",hKCa4 less sensitive than Kv1.3 (IKCa (hKCa4)) [fold],other closely related channels less sensitive than Kv1.3 [6] [fold],"resistance to proteolysis by porcine pepsin A, pancreatic elastase and subtilisin ([7]; […], 30° C., pH 3.0 (pepsin A), pH 6.5 (elastase, subtilisin))",cleavage by trypsin-chymotrypsin mixture or thermolysin ([7]; pH 6.5)
CCCC[C@@H]1NC(=O)[C@H](CCSC)NC(=O)[C@H](CO)NC(=O)[C@H](Cc2c[nH]cn2)NC(=O)[C@H](CCCCN)NC(=O)[C@@H]2CSSC[C@@H]3NC(=O)[C@H]([C@@H](C)O)NC(=O)[C@H](CCCCN)NC(=O)[C@H](CCCNC(=N)N)NC(=O)[C@H](CSSC[C@H](NC(=O)[C@H](CCCNC(=N)N)NC(=O)[C@H](CO)NC(=O)[C@H](CCCCN)NC(=O)[C@@H]4CCCN4C(=O)[C@H]([C@@H](C)CC)NC(=O)[C@H]([C@@H](C)O)NC(=O)[C@H](CC(=O)O)NC(=O)[C@H]([C@@H](C)CC)NC(=O)[C@@H](NC(=O)[C@H](CO)NC(=O)[C@@H](N)CCCNC(=N)N)CSSC[C@@H](C(=O)O)NC(=O)[C@H]([C@@H](C)O)NC(=O)CNC3=O)C(=O)N[C@@H]([C@@H](C)O)C(=O)N[C@@H](C)C(=O)N[C@@H](Cc3ccccc3)C(=O)N[C@@H](CCC(N)=O)C(=O)N2)NC(=O)[C@H](Cc2ccccc2)NC(=O)[C@H](CO)NC(=O)[C@H](CC(C)C)NC(=O)[C@H](CCCNC(=N)N)NC(=O)[C@H](Cc2ccc(O)cc2)NC1=O [K22Nle],> 250,> 250,> 3.23,> 23,more than 23 fold,0.053,–,–,–,–,–,–,–,–,–,–,–
CC[C@H](C)[C@@H]1NC(=O)[C@@H](NC(=O)[C@H](CO)NC(=O)[C@@H](N)CCCNC(=N)N)CSSC[C@@H](C(=O)O)NC(=O)[C@H]([C@@H](C)O)NC(=O)CNC(=O)[C@@H]2CSSC[C@@H]3NC(=O)[C@H](CCC(N)=O)NC(=O)[C@H](Cc4ccccc4)NC(=O)[C@H](C)NC(=O)[C@H]([C@@H](C)O)NC(=O)[C@H](CSSC[C@H](NC(=O)[C@H](Cc4ccccc4)NC(=O)[C@H](CO)NC(=O)[C@H](CC(C)C)NC(=O)[C@H](CCCNC(=N)N)NC(=O)[C@H](Cc4ccc(O)cc4)NC(=O)[C@H](CCCCN)NC(=O)[C@H](CCSC)NC(=O)[C@H](CO)NC(=O)[C@H](Cc4cnc[nH]4)NC(=O)[C@H](CCCCN)NC3=O)C(=O)N[C@@H](CCCNC(=N)N)C(=O)N[C@@H](CCCCN)C(=O)N[C@@H]([C@@H](C)O)C(=O)N2)NC(=O)[C@H](CCCNC(=N)N)NC(=O)[C@H](CO)NC(=O)[C@H](CCCCN)NC(=O)[C@@H]2CCCN2C(=O)[C@H]([C@@H](C)CC)NC(=O)[C@H]([C@@H](C)O)NC(=O)[C@H](CC(=O)O)NC1=O [ShK],–,–,0.0,–,–,–,8,0.89±0.17,binds almost irreversibly,100,close to unity,resistant to the peptide,resistant to the peptide,100,> 100,completely resistant to proteolysis,readily cleaved
